Values of other authors as cited in patent publication US20200046664A1, “METHOD FOR PREPARATION OF LIQUID ORAL COMPOSITION OF L-THYROXIN” (FTF PHARMA PRIVATE LIMITED, priority 2016, published 2020).

Structure (SMILES): N[C@@H](Cc1cc(I)c(Oc2cc(I)c(O)c(I)c2)c(I)c1)C(=O)[O-].[Na+] [Levothyroxine sodium, Sodium (2S)-2-amino-3-[4-(4-hydroxy-3,5-diiodophenoxy)-3,5-diiodophenyl]propanoate]
- Solubility in ethanol (96 percent) (ethanol (96 percent)): slightly soluble
- Solubility in water (water): very slightly soluble
